Experimental data: ChEMBL document CHEMBL5154747, “Discovery of new carbonic anhydrase IX inhibitors as anticancer agents by toning the hydrophobic and hydrophilic rims of the active site to encounter the dual-tail approach” (Eur J Med Chem, 2022)

Legend:
Assay type in all cases: functional
[1] = tested on: Malme-3M; assay: Anticancer activity against human Malme-3M cells assessed as cell growth inhibition incubated for 48 hrs by SRB assay
[2] = tested on: CAKI-1; assay: Anticancer activity against human CAKI-1 cells assessed as cell growth inhibition incubated for 48 hrs by SRB assay
[3] = tested on: SK-MEL-2; assay: Anticancer activity against human SK-MEL-2 cells assessed as cell growth inhibition incubated for 48 hrs by SRB assay
[4] = tested on: HT-29; assay: Anticancer activity against human HT-29 cells assessed as cell growth inhibition incubated for 48 hrs by SRB assay
[5] = tested on: SW-620; assay: Anticancer activity against human SW-620 cells assessed as cell growth inhibition incubated for 48 hrs by SRB assay
[6] = tested on: NCI-H522; assay: Anticancer activity against human NCI-H522 cells assessed as cell growth inhibition incubated for 48 hrs by SRB assay
[7] = tested on: MDA-MB-231; assay: Anticancer activity against human MDA-MB-231 cells assessed as cell growth inhibition incubated for 48 hrs by SRB assay
[8] = tested on: CCRF-CEM; assay: Anticancer activity against human CCRF-CEM cells assessed as cell growth inhibition incubated for 48 hrs by SRB assay
[9] = tested on: M14; assay: Anticancer activity against human M14 cells assessed as cell growth inhibition incubated for 48 hrs by SRB assay
[10] = tested on: UACC-257; assay: Anticancer activity against human UACC-257 cells assessed as cell growth inhibition incubated for 48 hrs by SRB assay
[11] = tested on: SK-MEL-28; assay: Anticancer activity against human SK-MEL-28 cells assessed as cell growth inhibition incubated for 48 hrs by SRB assay
[12] = tested on: NCI-H226; assay: Anticancer activity against human NCI-H226 cells assessed as cell growth inhibition incubated for 48 hrs by SRB assay
[13] = tested on: HOP-62; assay: Anticancer activity against human HOP-62 cells assessed as cell growth inhibition incubated for 48 hrs by SRB assay
[14] = tested on: SNB-19; assay: Anticancer activity against human SNB-19 cells assessed as cell growth inhibition incubated for 48 hrs by SRB assay
[15] = tested on: ACHN; assay: Anticancer activity against human ACHN cells assessed as cell growth inhibition incubated for 48 hrs by SRB assay
[16] = tested on: U-251; assay: Anticancer activity against human U-251 cells assessed as cell growth inhibition incubated for 48 hrs by SRB assay
[17] = tested on: NCI-H460; assay: Anticancer activity against human NCI-H460 cells assessed as cell growth inhibition incubated for 48 hrs by SRB assay
[18] = tested on: SF-539; assay: Anticancer activity against human SF-539 cells assessed as cell growth inhibition incubated for 48 hrs by SRB assay
[19] = tested on: OVCAR-8; assay: Anticancer activity against human OVCAR-8 cells assessed as cell growth inhibition incubated for 48 hrs by SRB assay
[20] = tested on: OVCAR-5; assay: Anticancer activity against human OVCAR-5 cells assessed as cell growth inhibition incubated for 48 hrs by SRB assay
[21] = tested on: BT-549; assay: Anticancer activity against human BT-549 cells assessed as cell growth inhibition incubated for 48 hrs by SRB assay
[22] = tested on: SF-295; assay: Anticancer activity against human SF-295 cells assessed as cell growth inhibition incubated for 48 hrs by SRB assay; conditions: read-out: LC50 (the source's name)
[23] = tested on: MCF7; assay: Anticancer activity against human MCF7 cells assessed as cell growth inhibition incubated for 48 hrs by SRB assay
[24] = tested on: PC-3; assay: Anticancer activity against human PC-3 cells assessed as cell growth inhibition incubated for 48 hrs by SRB assay
[25] = tested on: HL-60(TB); assay: Anticancer activity against human HL-60(TB) cells assessed as cell growth inhibition incubated for 48 hrs by SRB assay
[26] = tested on: T47D; assay: Anticancer activity against human T47D cells assessed as cell growth inhibition incubated for 48 hrs by SRB assay
[27] = tested on: SNB-75; assay: Anticancer activity against human SNB-75 cells assessed as cell growth inhibition incubated for 48 hrs by SRB assay
[28] = tested on: SF-268; assay: Anticancer activity against human SF-268 cells assessed as cell growth inhibition incubated for 48 hrs by SRB assay
[29] = tested on: 786-0; assay: Anticancer activity against human 786-0 cells assessed as cell growth inhibition incubated for 48 hrs by SRB assay
[30] = tested on: IGROV-1; assay: Anticancer activity against human IGROV-1 cells assessed as cell growth inhibition incubated for 48 hrs by SRB assay
[31] = tested on: MDA-MB-435; assay: Anticancer activity against human MDA-MB-435 cells assessed as cell growth inhibition incubated for 48 hrs by SRB assay
[32] = tested on: A498; assay: Anticancer activity against human A498 cells assessed as cell growth inhibition incubated for 48 hrs by SRB assay
[33] = tested on: MDA-MB-468; assay: Anticancer activity against human MDA-MB-468 cells assessed as cell growth inhibition incubated for 48 hrs by SRB assay
[34] = tested on: TK-10; assay: Anticancer activity against human TK-10 cells assessed as cell growth inhibition incubated for 48 hrs by SRB assay
[35] = tested on: RXF 393; assay: Anticancer activity against human RXF 393 cells assessed as cell growth inhibition incubated for 48 hrs by SRB assay
[36] = tested on: COLO 205; assay: Anticancer activity against human COLO 205 cells assessed as cell growth inhibition incubated for 48 hrs by SRB assay
[37] = tested on: SR; assay: Anticancer activity against human SR cells assessed as cell growth inhibition incubated for 48 hrs by SRB assay
[38] = tested on: DU-145; assay: Anticancer activity against human DU-145 cells assessed as cell growth inhibition incubated for 48 hrs by SRB assay
[39] = tested on: OVCAR-3; assay: Anticancer activity against human OVCAR-3 cells assessed as cell growth inhibition incubated for 48 hrs by SRB assay
[40] = read-out: LC50 (the source's name)

Structure (SMILES): Cc1nn(-c2ccccc2)cc1/C=N/Nc1nc(Nc2ccccc2)nc(Nc2ccc(S(N)(=O)=O)cc2)n1
- GI50 [1]: 1600 nM
- CC50 [1, 40]: 6130 nM
- GI50 [2]: 2010 nM
- GI50 [3]: 1690 nM
- GI50 [4]: 2880 nM
- CC50 [4, 40]: > 100000 nM
- GI50 [5]: 3380 nM
- CC50 [5, 40]: > 100000 nM
- GI50 [6]: 2660 nM
- CC50 [6, 40]: > 100000 nM
- GI50 [7]: 3110 nM
- LC50 (concentration killing 50% of cells) [7]: > 100000 nM
- GI50 [8]: 2090 nM
- CC50 [8, 40]: > 100000 nM
- GI50 [9]: 2060 nM
- GI50 [10]: 2500 nM
- LC50 [10]: > 100000 nM
- GI50 [11]: 1800 nM
- CC50 [11, 40]: 6640 nM
- GI50 [12]: 1850 nM
- CC50 [12, 40]: > 100000 nM
- GI50 [13]: 2830 nM
- CC50 [13, 40]: > 100000 nM
- GI50 [14]: 3440 nM
- CC50 [14, 40]: > 100000 nM
- GI50 [15]: 1900 nM
- CC50 [15, 40]: 6720 nM
- GI50 [16]: 3650 nM
- CC50 [16, 40]: > 100000 nM
- GI50 [17]: 2770 nM
- CC50 [17, 40]: > 100000 nM
- GI50 [18]: 1710 nM
- CC50 [18, 40]: 6250 nM
- GI50 [19]: 2050 nM
- LC50 [19]: > 100000 nM
- GI50 [20]: 2060 nM
- CC50 [20, 40]: > 100000 nM
- GI50 [21]: 1840 nM
- CC50 [21, 40]: > 100000 nM
- CC50 [22]: > 100000 nM
- GI50 [23]: 1550 nM
- LC50 [23]: 7590 nM
- GI50 [24]: 2220 nM
- CC50 [24, 40]: > 100000 nM
- GI50 [25]: 2240 nM
- CC50 [25, 40]: > 100000 nM
- GI50 [26]: 2140 nM
- LC50 [26]: > 100000 nM
- GI50 [27]: 2690 nM
- LC50 (concentration killing 50% of cells) [27]: > 100000 nM
- GI50 [28]: 2930 nM
- LC50 (concentration killing 50% of cells) [28]: > 100000 nM
- GI50 [29]: 2130 nM
- GI50 [30]: 2590 nM
- CC50 [30, 40]: > 100000 nM
- GI50 [31]: 1770 nM
- LC50 [31]: 6780 nM
- GI50 [32]: 1710 nM
- CC50 [32, 40]: 6710 nM
- GI50 [33]: 1520 nM
- CC50 [33, 40]: 7030 nM
- GI50 [34]: 1480 nM
- CC50 [34, 40]: 8250 nM
- GI50 [35]: 1770 nM
- CC50 [35, 40]: 6500 nM
- GI50 [36]: 2470 nM
- CC50 [36, 40]: > 100000 nM
- GI50 [37]: 2450 nM
- CC50 [37, 40]: > 100000 nM
- GI50 [38]: 3060 nM
- LC50 (50% lethal concentration) [38]: > 100000 nM
- GI50 [39]: 3180 nM
- LC50 (concentration killing 50% of cells) [39]: > 100000 nM
